According to PubChem BioAssay (NCI):
“And” between values parts separate entries of the source, which are not always exact repeats. Identical values can stand only once.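 These data come from cells grown in 96-well plates and exposed to compound for 48 hours at five concentrations. At the GI50, growth is halved. TGI denotes the concentration required for complete inhibition of growth.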

These compounds were tested on EKVX NSCLC (assay: NCI tumour cell line growth inhibition, 48 h).

O=C(O)CN(CC(=O)O)C1CCCCC1N(CC(=O)O)CC(=O)NCCN=C=S (stereo not drawn) and O=C([O-])CC(=O)[O-].O=C([O-])CC(=O)[O-].[K+].[Pd+2] cannot be ordered by TGI: > 100 µM for the first, > 100 µM for the second.

Oc1cc2c3c(c1)c1cc4c(cc1c[n+]3CC2)OCO4 and N=c1n(C(=O)N2CCCC2)c2cc(Cl)ccc2n1C1=NCCN1 cannot be ordered by TGI: > 76.6 µM for the first, > 100 µM for the second.

Going from COc1nc(N)c(C(=O)CCl)c(=O)n1C to CC(=O)NC1=C(NCCC(C)C)C(=O)c2ccccc2C1=O, the TGI rises from 31.7 µM to > 50 µM.

Compared with O=C1CCC23CC(C=CC=C12)n1c(=O)n(-c2ccccc2)c(=O)n13 (stereo not drawn), C=C1c2nc3ccccc3n2C=C(c2ccccc2)N1c1ccc([N+](=O)[O-])cc1 is lower in TGI: > 100 µM for the first, 24.8 µM for the second.

O=C([O-])CC(=O)[O-].O=C([O-])CC(=O)[O-].[K+].[Pd+2] was tested, and the GI50 was > 100 µM.

The compounds below were run on RPMI-8226 leukemia (assay: NCI tumour cell line growth inhibition, 48 h).

CC1C=C(CCCCCCCCCCCC[C@@H](O)[C@@H]2CC[C@@H]([C@@H]3CC[C@@H](C(O)CCCCCCCCCCCCC4=C[C@H](C)OC4=O)O3)O2)C(=O)O1 (stereo partly drawn) and CC(C)CCCCCCCCCCCCC(=O)NCC(=O)NC1C(C)OC(Nc2ncnc3c2ncn3C)C(O)C1O (stereo not drawn) cannot be ordered by TGI: > 84.5 µM for the first, > 100 µM for the second.

Compared with COc1cc([C@@H]2OCC3C(c4ccc5c(c4)OCO5)OCC32)cc(OC)c1OC (stereo partly drawn), Oc1cc2c3c(c1)c1cc4c(cc1c[n+]3CC2)OCO4 is lower in TGI: > 100 µM for the first, 6.46 µM for the second.

N#CN=C(N(Cc1ccccc1)Cc1ccccc1)N(Cc1ccccc1)Cc1ccccc1 and C=C1c2nc3ccccc3n2C=C(c2ccccc2)N1c1ccc([N+](=O)[O-])cc1 cannot be ordered by TGI: > 100 µM for the first, > 55.7 µM for the second.

First: CNC(=O)C(C)C1CCC2(C)C=CC(=O)C(C)=C2C1O (stereo not drawn)
Second: CCC12C=CCN3CCC4(C(=C(C(=O)OC)[C@@H]1O)Nc1ccccc14)C32 (stereo partly drawn)
The TGI of the first is higher: > 100 µM for the first, 6 µM for the second.

C[n+]1c2ccccc2c(/C=N\NS(=O)(=O)c2ccc(O)c(C(=O)O)c2)c2ccccc21 and CC(=O)Nc1ccc(-c2nnc(SCC(=O)Nc3ccc([N+](=O)[O-])cc3)o2)cc1 cannot be ordered by TGI: > 100 µM for the first, > 100 µM for the second.

O=C(Nc1ccc(C2=NCCN2)cc1)c1cncc(C(=O)Nc2ccc(C3=NCCN3)cc2)c1 and N=c1n(C(=O)N2CCCC2)c2cc(Cl)ccc2n1C1=NCCN1 cannot be ordered by TGI: > 100 µM for the first, > 100 µM for the second.

N.N.N.N.O=[N+]([O-])[O-].[Co+3].[N-]=[N+]=[N-].[N-]=[N+]=[N-] and [N-]=[N+]=Nc1cc(=O)oc2ccccc12 cannot be ordered by TGI: > 100 µM for the first, > 100 µM for the second.

Cc1cc(=O)[nH]c(NN2C(Cl)C(=O)C2c2ccccc2O)n1 (stereo not drawn) and O=C1CCC(=O)N1n1c(Cc2ccccc2)n[nH]c1=O cannot be ordered by TGI: > 63.2 µM for the first, > 100 µM for the second.

Compared with Cc1c2cnccc2c(C)c2c1c1ccccc1n2CCCN, O=C1CCC23CC(C=CC=C12)n1c(=O)n(-c2ccccc2)c(=O)n13 (stereo not drawn) is higher in TGI: 0.671 µM for the first, > 100 µM for the second.

O=C(O)CN(CC(=O)O)C1CCCCC1N(CC(=O)O)CC(=O)NCCN=C=S (stereo not drawn) and O=C([O-])CC(=O)[O-].O=C([O-])CC(=O)[O-].[K+].[Pd+2] cannot be ordered by TGI: > 100 µM for the first, > 100 µM for the second.

COc1nc(N)c(C(=O)CCl)c(=O)n1C showed a TGI of 32.4 µM.

For O=C([O-])CC(=O)[O-].O=C([O-])CC(=O)[O-].[K+].[Pd+2], the GI50 was > 100 µM.

These compounds were tested on MALME-3M melanoma (assay: NCI tumour cell line growth inhibition, 48 h).

CC1C=C(CCCCCCCCCCCC[C@@H](O)[C@@H]2CC[C@@H]([C@@H]3CC[C@@H](C(O)CCCCCCCCCCCCC4=C[C@H](C)OC4=O)O3)O2)C(=O)O1 (stereo partly drawn) and CC(C)CCCCCCCCCCCCC(=O)NCC(=O)NC1C(C)OC(Nc2ncnc3c2ncn3C)C(O)C1O (stereo not drawn) cannot be ordered by TGI: > 100 µM for the first, > 100 µM for the second.

Compared with COc1cc([C@@H]2OCC3C(c4ccc5c(c4)OCO5)OCC32)cc(OC)c1OC (stereo partly drawn), Oc1cc2c3c(c1)c1cc4c(cc1c[n+]3CC2)OCO4 is lower in TGI: > 100 µM for the first, 7.85 µM for the second.

Compared with N#CN=C(N(Cc1ccccc1)Cc1ccccc1)N(Cc1ccccc1)Cc1ccccc1, C=C1c2nc3ccccc3n2C=C(c2ccccc2)N1c1ccc([N+](=O)[O-])cc1 is lower in TGI: > 100 µM for the first, 25.9 µM for the second.

First: C[n+]1c2ccccc2c(/C=N\NS(=O)(=O)c2ccc(O)c(C(=O)O)c2)c2ccccc21
Second: CC(=O)Nc1ccc(-c2nnc(SCC(=O)Nc3ccc([N+](=O)[O-])cc3)o2)cc1
The TGI of the first is higher: > 100 µM for the first, 27 µM for the second.

O=C(Nc1ccc(C2=NCCN2)cc1)c1cncc(C(=O)Nc2ccc(C3=NCCN3)cc2)c1 and N=c1n(C(=O)N2CCCC2)c2cc(Cl)ccc2n1C1=NCCN1 cannot be ordered by TGI: > 100 µM for the first, > 100 µM for the second.

N.N.N.N.O=[N+]([O-])[O-].[Co+3].[N-]=[N+]=[N-].[N-]=[N+]=[N-] and [N-]=[N+]=Nc1cc(=O)oc2ccccc12 cannot be ordered by TGI: > 100 µM for the first, > 100 µM for the second.

First: CCC12C=CCN3CCC4(C(=C(C(=O)OC)[C@@H]1O)Nc1ccccc14)C32 (stereo partly drawn)
Second: O=C1CCC(=O)N1n1c(Cc2ccccc2)n[nH]c1=O
The TGI of the first is lower: 3.43 µM for the first, > 100 µM for the second.

O=C(O)CN(CC(=O)O)C1CCCCC1N(CC(=O)O)CC(=O)NCCN=C=S (stereo not drawn) and O=C([O-])CC(=O)[O-].O=C([O-])CC(=O)[O-].[K+].[Pd+2] cannot be ordered by TGI: > 100 µM for the first, > 100 µM for the second.

Compared with COc1nc(N)c(C(=O)CCl)c(=O)n1C, CC(=O)NC1=C(NCCC(C)C)C(=O)c2ccccc2C1=O is higher in TGI: 22.7 µM for the first, > 50 µM for the second.

For O=C1CCC23CC(C=CC=C12)n1c(=O)n(-c2ccccc2)c(=O)n13 (stereo not drawn), the TGI was > 100 µM.

Going from Cc1c2cnccc2c(C)c2c1c1ccccc1n2CCCN to O=C([O-])CC(=O)[O-].O=C([O-])CC(=O)[O-].[K+].[Pd+2], the GI50 rises from 0.313 µM to > 100 µM.

For Cc1c2cnccc2c(C)c2c1c1ccccc1n2CCCN, the TGI was 2.09 µM and 1.08 µM.

Each compound was assayed on T-47D breast (assay: NCI tumour cell line growth inhibition, 48 h).

Cc1cc(=O)[nH]c(NN2C(Cl)C(=O)C2c2ccccc2O)n1 (stereo not drawn) and O=C1CCC(=O)N1n1c(Cc2ccccc2)n[nH]c1=O cannot be ordered by TGI: > 100 µM for the first, > 100 µM for the second.

First: Cc1c2cnccc2c(C)c2c1c1ccccc1n2CCCN
Second: C=C1c2nc3ccccc3n2C=C(c2ccccc2)N1c1ccc([N+](=O)[O-])cc1
The TGI of the first is lower: 2.03 µM for the first, > 53.5 µM for the second.

Going from O=C(O)CN(CC(=O)O)C1CCCCC1N(CC(=O)O)CC(=O)NCCN=C=S (stereo not drawn) to N=c1n(C(=O)N2CCCC2)c2cc(Cl)ccc2n1C1=NCCN1, the TGI falls from > 100 µM to 98.2 µM.

For Oc1cc2c3c(c1)c1cc4c(cc1c[n+]3CC2)OCO4, the TGI was 22.5 µM.

These compounds were tested on M19-MEL melanoma (assay: NCI tumour cell line growth inhibition, 48 h).

CC1C=C(CCCCCCCCCCCC[C@@H](O)[C@@H]2CC[C@@H]([C@@H]3CC[C@@H](C(O)CCCCCCCCCCCCC4=C[C@H](C)OC4=O)O3)O2)C(=O)O1 (stereo partly drawn) and CC(C)CCCCCCCCCCCCC(=O)NCC(=O)NC1C(C)OC(Nc2ncnc3c2ncn3C)C(O)C1O (stereo not drawn) cannot be ordered by TGI: > 100 µM for the first, > 100 µM for the second.

First: COc1cc([C@@H]2OCC3C(c4ccc5c(c4)OCO5)OCC32)cc(OC)c1OC (stereo partly drawn)
Second: CCC12C=CCN3CCC4(C(=C(C(=O)OC)[C@@H]1O)Nc1ccccc14)C32 (stereo partly drawn)
The TGI of the first is higher: > 100 µM for the first, 3.61 µM for the second.

N#CN=C(N(Cc1ccccc1)Cc1ccccc1)N(Cc1ccccc1)Cc1ccccc1 and C[n+]1c2ccccc2c(/C=N\NS(=O)(=O)c2ccc(O)c(C(=O)O)c2)c2ccccc21 cannot be ordered by TGI: > 100 µM for the first, > 100 µM for the second.

CNC(=O)C(C)C1CCC2(C)C=CC(=O)C(C)=C2C1O (stereo not drawn) and Cc1cc(=O)[nH]c(NN2C(Cl)C(=O)C2c2ccccc2O)n1 (stereo not drawn) cannot be ordered by TGI: > 100 µM for the first, > 100 µM for the second.

Going from O=C(Nc1ccc(C2=NCCN2)cc1)c1cncc(C(=O)Nc2ccc(C3=NCCN3)cc2)c1 to CC(=O)Nc1ccc(-c2nnc(SCC(=O)Nc3ccc([N+](=O)[O-])cc3)o2)cc1, the TGI falls from > 100 µM to 26.3 µM.

First: Cc1c2cnccc2c(C)c2c1c1ccccc1n2CCCN
Second: CC(=O)NC1=C(NCCC(C)C)C(=O)c2ccccc2C1=O
The TGI of the first is lower: 0.915 µM for the first, > 50 µM for the second.

O=C1CCC23CC(C=CC=C12)n1c(=O)n(-c2ccccc2)c(=O)n13 (stereo not drawn) and [N-]=[N+]=Nc1cc(=O)oc2ccccc12 cannot be ordered by TGI: > 100 µM for the first, > 100 µM for the second.

The compounds below were run on HS 578T breast (assay: NCI tumour cell line growth inhibition, 48 h).

Cc1cc(=O)[nH]c(NN2C(Cl)C(=O)C2c2ccccc2O)n1 (stereo not drawn) and O=C1CCC(=O)N1n1c(Cc2ccccc2)n[nH]c1=O cannot be ordered by TGI: > 100 µM for the first, > 100 µM for the second.

Going from Cc1c2cnccc2c(C)c2c1c1ccccc1n2CCCN to C=C1c2nc3ccccc3n2C=C(c2ccccc2)N1c1ccc([N+](=O)[O-])cc1, the TGI rises from 2.37 µM to 30.3 µM (13-fold).

O=C(O)CN(CC(=O)O)C1CCCCC1N(CC(=O)O)CC(=O)NCCN=C=S (stereo not drawn) and N=c1n(C(=O)N2CCCC2)c2cc(Cl)ccc2n1C1=NCCN1 cannot be ordered by TGI: > 100 µM for the first, > 100 µM for the second.

Compound Oc1cc2c3c(c1)c1cc4c(cc1c[n+]3CC2)OCO4 has a TGI of 13.6 µM.

Each compound was assayed on SNB-78 CNS (assay: NCI tumour cell line growth inhibition, 48 h).

Going from COc1cc([C@@H]2OCC3C(c4ccc5c(c4)OCO5)OCC32)cc(OC)c1OC (stereo partly drawn) to CCC12C=CCN3CCC4(C(=C(C(=O)OC)[C@@H]1O)Nc1ccccc14)C32 (stereo partly drawn), the TGI falls from > 100 µM to 7.35 µM.

N#CN=C(N(Cc1ccccc1)Cc1ccccc1)N(Cc1ccccc1)Cc1ccccc1 and C[n+]1c2ccccc2c(/C=N\NS(=O)(=O)c2ccc(O)c(C(=O)O)c2)c2ccccc21 cannot be ordered by TGI: > 100 µM for the first, > 100 µM for the second.

CNC(=O)C(C)C1CCC2(C)C=CC(=O)C(C)=C2C1O (stereo not drawn) and Cc1cc(=O)[nH]c(NN2C(Cl)C(=O)C2c2ccccc2O)n1 (stereo not drawn) cannot be ordered by TGI: > 100 µM for the first, > 100 µM for the second.

Compared with O=C(Nc1ccc(C2=NCCN2)cc1)c1cncc(C(=O)Nc2ccc(C3=NCCN3)cc2)c1, CC(=O)Nc1ccc(-c2nnc(SCC(=O)Nc3ccc([N+](=O)[O-])cc3)o2)cc1 is lower in TGI: > 100 µM for the first, 34.3 µM for the second.

N.N.N.N.O=[N+]([O-])[O-].[Co+3].[N-]=[N+]=[N-].[N-]=[N+]=[N-] and O=C([O-])CC(=O)[O-].O=C([O-])CC(=O)[O-].[K+].[Pd+2] cannot be ordered by TGI: > 100 µM for the first, > 100 µM for the second.

CC(C)CCCCCCCCCCCCC(=O)NCC(=O)NC1C(C)OC(Nc2ncnc3c2ncn3C)C(O)C1O (stereo not drawn) and CC(=O)NC1=C(NCCC(C)C)C(=O)c2ccccc2C1=O cannot be ordered by TGI: > 100 µM for the first, > 50 µM for the second.

Compared with Cc1c2cnccc2c(C)c2c1c1ccccc1n2CCCN, O=C1CCC23CC(C=CC=C12)n1c(=O)n(-c2ccccc2)c(=O)n13 (stereo not drawn) is higher in TGI: 2.23 µM for the first, > 100 µM for the second.

COc1nc(N)c(C(=O)CCl)c(=O)n1C was tested, and the TGI was 40.2 µM.

N.N.N.N.O=[N+]([O-])[O-].[Co+3].[N-]=[N+]=[N-].[N-]=[N+]=[N-] and O=C([O-])CC(=O)[O-].O=C([O-])CC(=O)[O-].[K+].[Pd+2] cannot be ordered by GI50: > 100 µM for the first, > 100 µM for the second.
